Values of other authors in article PMC9516332 (Frontiers in Oncology, 2022).
Read-outs that look alike come from different tables or passages of the source.

Legend:
Details in all cases: cited from earlier work
[1] = molecular target: panel of 255 wild-type kinases (Homo sapiens, UniProt Q9P286)
[2] = molecular target: panel of 255 wild-type kinases (Homo sapiens, UniProt P42685)
[3] = molecular target: panel of 255 wild-type kinases (Homo sapiens, UniProt Q15303)
[4] = molecular target: panel of 255 wild-type kinases (Homo sapiens, UniProt P45984)
[5] = molecular target: panel of 255 wild-type kinases (Homo sapiens, UniProt P05129)
[6] = molecular target: panel of 255 wild-type kinases (Homo sapiens, UniProt Q07912)
[7] = molecular target: panel of 255 wild-type kinases (Homo sapiens, UniProt P07333)
[8] = molecular target: panel of 255 wild-type kinases (Homo sapiens, UniProt Q96RG2)
[9] = molecular target: panel of 255 wild-type kinases (Homo sapiens, UniProt Q15208)
[10] = molecular target: T1, panel of 255 wild-type kinases (Homo sapiens, UniProt Q8IWQ3)
T1 sequence (Q8IWQ3 1-736): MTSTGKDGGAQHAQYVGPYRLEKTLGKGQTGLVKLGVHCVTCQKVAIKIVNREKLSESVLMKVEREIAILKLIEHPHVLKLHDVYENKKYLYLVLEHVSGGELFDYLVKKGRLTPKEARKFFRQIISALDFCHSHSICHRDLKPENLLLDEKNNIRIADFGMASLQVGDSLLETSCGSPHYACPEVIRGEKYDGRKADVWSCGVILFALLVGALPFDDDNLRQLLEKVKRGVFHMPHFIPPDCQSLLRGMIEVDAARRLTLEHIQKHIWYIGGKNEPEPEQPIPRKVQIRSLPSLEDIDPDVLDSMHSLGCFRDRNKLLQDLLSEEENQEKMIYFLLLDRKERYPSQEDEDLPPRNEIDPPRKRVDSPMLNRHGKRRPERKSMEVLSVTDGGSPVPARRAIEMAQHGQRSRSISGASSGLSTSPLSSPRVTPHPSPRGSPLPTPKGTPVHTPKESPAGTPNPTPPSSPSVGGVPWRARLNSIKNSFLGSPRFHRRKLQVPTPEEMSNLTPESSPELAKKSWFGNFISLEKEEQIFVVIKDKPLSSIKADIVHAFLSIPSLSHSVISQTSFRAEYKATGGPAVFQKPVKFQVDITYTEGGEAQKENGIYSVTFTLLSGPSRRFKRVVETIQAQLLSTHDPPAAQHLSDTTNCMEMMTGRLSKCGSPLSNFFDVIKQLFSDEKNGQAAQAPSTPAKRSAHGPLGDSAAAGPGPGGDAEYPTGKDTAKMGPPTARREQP

[11] = molecular target: panel of 255 wild-type kinases (Homo sapiens, UniProt P54764)
[12] = PAK5, 1 µmol/L single concentration, ref DOI: 10.1371/journal.pone.0092146
[13] = kinase FRK, 1 µmol/L single concentration, ref DOI: 10.1371/journal.pone.0092146
[14] = kinase HER4, 1 µmol/L single concentration, ref DOI: 10.1371/journal.pone.0092146
[15] = kinase JNK2, 1 µmol/L single concentration, ref DOI: 10.1371/journal.pone.0092146
[16] = kinase PKCγ, 1 µmol/L single concentration, ref DOI: 10.1371/journal.pone.0092146
[17] = ACK kinase assay, 1 µmol/L single concentration, ref DOI: 10.1371/journal.pone.0092146
[18] = kinase FMS, 1 µmol/L single concentration, ref DOI: 10.1371/journal.pone.0092146
[19] = PASK, 1 µmol/L single concentration, ref DOI: 10.1371/journal.pone.0092146
[20] = NDR1, 1 µmol/L single concentration, ref DOI: 10.1371/journal.pone.0092146
[21] = BRSK2 kinase assay, 1 µmol/L single concentration, ref DOI: 10.1371/journal.pone.0092146
[22] = kinase EPHA4, 1 µmol/L single concentration, ref DOI: 10.1371/journal.pone.0092146
[23] = PAK5, 1 µmol/L single concentration, ref DOI: 10.1158/1535-7163.MCT-18-0877
[24] = kinase FRK, 1 µmol/L single concentration, ref DOI: 10.1158/1535-7163.MCT-18-0877
[25] = kinase HER4, 1 µmol/L single concentration, ref DOI: 10.1158/1535-7163.MCT-18-0877
[26] = kinase JNK2, 1 µmol/L single concentration, ref DOI: 10.1158/1535-7163.MCT-18-0877
[27] = kinase PKCγ, 1 µmol/L single concentration, ref DOI: 10.1158/1535-7163.MCT-18-0877
[28] = ACK kinase assay, 1 µmol/L single concentration, ref DOI: 10.1158/1535-7163.MCT-18-0877
[29] = kinase FMS, 1 µmol/L single concentration, ref DOI: 10.1158/1535-7163.MCT-18-0877
[30] = PASK, 1 µmol/L single concentration, ref DOI: 10.1158/1535-7163.MCT-18-0877
[31] = NDR1, 1 µmol/L single concentration, ref DOI: 10.1158/1535-7163.MCT-18-0877
[32] = BRSK2 kinase assay, 1 µmol/L single concentration, ref DOI: 10.1158/1535-7163.MCT-18-0877
[33] = kinase EPHA4, 1 µmol/L single concentration, ref DOI: 10.1158/1535-7163.MCT-18-0877

Structure (SMILES) | %-inhibition, PAK5 [1, 12] [%] | %-inhibition at 1 µmol/L, FRK [2, 13] [%] | %-inhibition at 1 µmol/L, HER4 [3, 14] [%] | %-inhibition at 1 µmol/L, JNK2 [4, 15] [%] | %-inhibition at 1 µmol/L, PKCγ [5, 16] [%] | %-inhibition ACK [6, 17] [%] | %-inhibition at 1 µmol/L, FMS [7, 18] [%] | %-inhibition, PASK [8, 19] [%] | %-inhibition, NDR1 [9, 20] [%] | %-inhibition, PAK5 [1, 23] [%] | %-inhibition at 1 µmol/L, FRK [2, 24] [%] | %-inhibition at 1 µmol/L, HER4 [3, 25] [%] | %-inhibition at 1 µmol/L, JNK2 [4, 26] [%] | %-inhibition at 1 µmol/L, PKCγ [5, 27] [%] | %-inhibition ACK [6, 28] [%] | %-inhibition at 1 µmol/L, FMS [7, 29] [%] | %-inhibition, PASK [8, 30] [%] | %-inhibition, NDR1 [9, 31] [%] | %-inhibition BRSK2 [10, 32] [%] | %-inhibition at 1 µmol/L, EPHA4 [11, 33] [%] | further results
CCCS(=O)(=O)Nc1ccc(F)c(C(=O)c2c[nH]c3ncc(-c4ccc(Cl)cc4)cc23)c1F [vemurafenib] | -1.23 | 62 | 11 | -0.0632 | -4.39 | 40 | 6 | 2.35 | -3.81 | – | – | – | – | – | – | – | – | – | – | – | %-inhibition BRSK2 [10, 21]: -6%; %-inhibition at 1 µmol/L, EPHA4 [11, 22]: -2%
CC(=O)Nc1cccc(-n2c(=O)n(C3CC3)c(=O)c3c(Nc4ccc(I)cc4F)n(C)c(=O)c(C)c32)c1 [trametinib] | -2.62 | -3 | 2.34 | -4.73 | 0.381 | -5.39 | -4 | -0.187 | -1.68 | – | – | – | – | – | – | – | – | – | – | – | %-inhibition BRSK2 [10, 21]: 5.38%; %-inhibition at 1 µmol/L, EPHA4 [11, 22]: -5.3%
CCc1cc2c(cc1N1CCC(N3CCOCC3)CC1)C(C)(C)c1[nH]c3cc(C#N)ccc3c1C2=O [alectinib] | – | – | – | – | – | – | – | – | – | 8 | 53 | 34 | -0.468 | 0.135 | 42 | 19 | -2.6 | 1.29 | -2.35 | 3 | –
CC(C)(C)c1nc(-c2cccc(NS(=O)(=O)c3c(F)cccc3F)c2F)c(-c2ccnc(N)n2)s1 [dabrafenib] | 21 | 81 | 23 | -0.947 | -0.381 | 24 | 15 | 1.12 | -0.891 | – | – | – | – | – | – | – | – | – | – | – | %-inhibition BRSK2 [10, 21]: 30%; %-inhibition at 1 µmol/L, EPHA4 [11, 22]: 12%
CC#CC(=O)N1CCC[C@H]1c1nc(-c2ccc(C(=O)Nc3ccccn3)cc2)c2c(N)nccn12 [acalabrutinib] | – | – | – | – | – | – | – | – | – | -0.37 | 47 | 78 | -1.85 | -7.43 | 14 | 8 | -5.37 | -6.32 | -10 | -3 | –
O=C(c1ccc(F)c(F)c1Nc1ccc(I)cc1F)N1CC(O)([C@@H]2CCCCN2)C1 [cobimetinib] | – | – | – | – | – | – | – | – | – | 0.678 | 0.866 | 11 | -2.51 | -1.52 | 7 | 5 | 1.07 | 2.53 | 3 | 3 | –
C=CC(=O)Nc1cc(Nc2nccc(-c3cn(C)c4ccccc34)n2)c(OC)cc1N(C)CCN(C)C [osimertinib] | – | – | – | – | – | – | – | – | – | 6 | 34 | 96 | -2.75 | 14 | 100 | 47 | 2.58 | 13 | -0.439 | 3.54 | –
Cc1cc(Nc2ncc(Cl)c(Nc3ccccc3S(=O)(=O)C(C)C)n2)c(OC(C)C)cc1C1CCNCC1 [ceritinib] | – | – | – | – | – | – | – | – | – | 15 | 85 | 51 | 16 | -1.46 | 103 | 55 | 1.28 | 15 | 24 | 1.33 | –
CO[C@@H]1[C@H](N(C)C(=O)c2ccccc2)C[C@H]2O[C@]1(C)n1c3ccccc3c3c4c(c5c6ccccc6n2c5c31)C(=O)NC4 [midostaurin] | – | – | – | – | – | – | – | – | – | 37 | 70 | 77 | 8 | 91 | 102 | 95 | 6 | 31 | 90 | 2.15 | –
COc1cc(N2CCC(N3CCN(C)CC3)CC2)ccc1Nc1ncc(Cl)c(Nc2ccccc2P(C)(C)=O)n1 [brigatinib] | – | – | – | – | – | – | – | – | – | – | – | – | – | – | – | – | – | – | – | – | %-inhibition, PAK5 [1]: 82%; %-inhibition at 1 µmol/L, FRK [2]: 104%; %-inhibition at 1 µmol/L, HER4 [3]: 99%; %-inhibition at 1 µmol/L, JNK2 [4]: 50%; %-inhibition at 1 µmol/L, PKCγ [5]: 11%; %-inhibition ACK [6]: 104%; %-inhibition at 1 µmol/L, FMS [7]: 100%; %-inhibition, PASK [8]: -5%; %-inhibition, NDR1 [9]: 63%; %-inhibition BRSK2 [10]: 77%; %-inhibition at 1 µmol/L, EPHA4 [11]: 3%
C=CC(=O)N1CCC[C@@H](n2nc(-c3ccc(Oc4ccccc4)cc3)c3c(N)ncnc32)C1 [ibrutinib] | – | – | – | – | – | – | – | – | – | 12 | 100 | 99 | -2.83 | 0.797 | 73 | 19 | -0.0437 | 2.65 | 16 | 13 | –
C[C@@H](Oc1cc(-c2cnn(C3CCNCC3)c2)cnc1N)c1c(Cl)ccc(F)c1Cl [crizotinib] | 7 | 26 | -18 | -2.59 | -0.662 | 56 | 92 | 1 | -1.48 | – | – | – | – | – | – | – | – | – | – | – | %-inhibition BRSK2 [10, 21]: 8%; %-inhibition at 1 µmol/L, EPHA4 [11, 22]: 58%
